Source: US6903130B1, “Pyrrolidineacetamide derivative alone or in combination for treatment of cns disorders” (UCB S.A., priority 1999, dated 2005)

Experiments:
[1] = test system: rats in which hyperactivity has been induced using the DEX-CDP mixture; test: Y maze test, hyperactivity induced by DEX-CDP mixture (Example 1); format: in vivo, rat; conditions: for Number of arms visited: median; for Effect on hyperactivity induced by DEX-CDP (in words): hyperactive rats; for Effect on hyperactivity induced by DEX-CDP (in words) / Effect of the compound per se on activity of non-hyperactive control (in words): i.p.; for Effect of the compound per se on activity of non-hyperactive control (in words): non-hyperactive control rats
Description: An increase in motor activity is a frequent symptom of manic disorders and as a consequence, it is often used as a model of mania in laboratory animals. […] Further, not all activity tests are suitable for observing reproducible hyperactivity.
Hyperactivity induced in rodents tested in a symmetrical v maze by a mixture of dexamphetamine and chlordiazepoxide (DEX-CDP) has been used by a number of researchers to study the effect of lithium (Cox C. et al., “Lithium attenuates “manic” activity in rats” Nature (1971), vol. 232 p 336-338—Vale A. L. and Ratcliffe F., “Effect of lithium administration on rat brain 5-hydroxyindole levels in a possible animal model of mania” Psychopharamacol. (1987), vol.91 p 352-355), or more recently the effect of the antiepiteptic “Valproate” (Cao B. J. and Peng N. A., “Magnesium valproate attenuates hyperactivity induced by dexamphetamine-chlordiazepoxide mixture in rodents” Eur. J. Pharmacol. (1993), vol. 237, p 177-181).
Lithium and valproate were also tested and used as reference compounds.
The animals used were male Sprague-Dawley rats (origin: OFA, IFFA CREDO, Belgium) weighing between 210 and 290 grams. They were placed in stainless steel cages in groups of 8. The day prior to the experiment, they were placed in macrolon cages (4 animals per cage: 38×27×15 centimeters (cm)) with the floor covered with sawdust. The cages were placed in an animal holding chamber provided with air conditioning, illuminated from 0600 hrs to 1800 hrs. Food and water were available “ad libitum”.
The apparatus used was a Y maze (each arm being 40 cm long and 15 cm wide with 35 cm walls) constructed from grey Plexiglass, located in a faintly illuminated room (Less than 5 Lux at ground level) and used to measure the rats' activity. The activity was estimated by recording the number of entries into the arms of the maze over a five-minute period. A video camera was positioned at a height of one meter above the apparatus and connected to a monitor located in an adjacent room in which an experimenter counted the number of entries into the arms.
The injection of different compounds into the rats was performed under the following conditions. 12.5 mg/kg of chlordiazepoxide and 1.18 mg/kg of D-amphetamine sulfate were dissolved in a saline solution (0.9%) and administered simultaneously by subcutaneous injection 35 minutes before the test in a volume of 1 ml/kg. 17 and 54 mg/kg of levetiracetam were dissolved in a saline aqueous solution (0.9%) and injected intraperitoneally 30 minutes before the test (table 4). 50, 100 and 200 mg/kg of sodium valproate were dissolved in an aqueous saline solution (0.9%) and injected intraperitoneally 15 minutes before the test (table 2). 2 and 4 milliequivalents (meq) of […] of lithium chloride were dissolved in a saline solution (0.9%) and injected intraperitoneally 215 minutes before the test (table 1). The test drugs were injected in a volume of 5 ml/kg.
The effects of the different drugs were studied separately. In each experiment, the animals were placed in different groups ([…]) in a random fashion. During the test, each rat was placed in the center of the apparatus and the number of visits into the arms was recorded as an activity index.
For the results to be properly statistically analyzed, they were expressed as median with the first and third quartile. General comparisons of the statistics were carried out using a Kruskal-Wallis test for the controls and the effect of the compound per se. This test was also used to compare the effect of the (DEX-CDP) mixture, and the effect of the compounds against the hyperactivity induced by the (DEX-CDP) mixture.

[2] = test system: GABA levels, GABA transaminase and glutamic decarboxylase; conditions: mouse brain; cited from earlier work

Compound | Number of arms visited ([1]; DEX-CDP mixture + sodium valproate 50 mg/kg i.p.) | Number of arms visited ([1]; DEX-CDP mixture + sodium valproate 100 mg/kg i.p.) | Number of arms visited ([1]; DEX-CDP mixture + sodium valproate 200 mg/kg i.p.) | Effect on hyperactivity induced by DEX-CDP (in words) [1] | Effect of the compound per se on activity of non-hyperactive control (in words) [1] | Number of arms visited ([1]; sodium valproate 50 mg/kg i.p. alone, no mixture) | Number of arms visited ([1]; sodium valproate 100 mg/kg i.p. alone, no mixture) | Number of arms visited ([1]; sodium valproate 200 mg/kg i.p. alone, no mixture) | effect on GABA levels and the enzymatic activities of GABA transaminase and glutamic decarboxylase [2] | Number of arms visited ([1]; DEX-CDP mixture + levetiracetam 17 mg/kg i.p.) | Number of arms visited ([1]; DEX-CDP mixture + levetiracetam 54 mg/kg i.p.) | Effect on hyperactivity induced by DEX-CDP (in words) ([1]; listed as levetiracetam) | Number of arms visited ([1]; levetiracetam 17 mg/kg i.p. alone, no mixture) | Number of arms visited ([1]; levetiracetam 54 mg/kg i.p. alone, no mixture)
CCCC(CCC)C(=O)[O-].[Na+] [Valproate, sodium valproate] | 38 | 39 | 20 | significantly counteracted hyperactivity at a dose of 200 mg/kg | strong dose dependent hyperactivity | 28 | 34 | 40 | – | – | – | – | – | –
CC[C@@H](C(N)=O)N1CCCC1=O [Levetiracetam, (S)-(−)α-ethyl-2-oxo-1-pyrrolidineacetamide] | – | – | – | significantly counteracted the hyperactivity induced by DEX-CDP at a dose of 54 mg/kg | only a slight hyperactivity at a dose of 17 mg/kg | – | – | – | lack of effect | 36 | 26 | normalization to the activity level of the non-hyperactive control rats | 31 | 28
